{"source": "patent US9758485B2", "about": "“Compounds for controlling arthropods” (priority 2013, dated 2017)"}
{"test_system": "Lucilia cuprina", "test": "Lucilia cuprina test", "format": "in vivo", "details": "application rate 100 ppm; L1 larvae in minced horsemeat; kill after 2 days", "protocol": "(§1) Solvent: dimethyl sulphoxide\n(§2) To produce an appropriate active ingredient formulation, 10 mg of active ingredient are mixed with 0.5 ml of dimethyl sulphoxide, and the concentrate is diluted with water to the desired concentration.\nAbout 20 L1 larvae of the Australian sheep blowfly (Lucilia cuprina) are transferred into a test vessel containing minced horsemeat and the active ingredient preparation of the desired concentration.\nAfter 2 days, the kill in % is determined. 100% means that all the larvae have been killed; 0% means that none of the larvae have been killed.", "units": {"efficacy": "%"}}
{"molecule": "Cc1cc(C(F)(C(F)(F)F)C(F)(F)F)cc(C)c1-n1cc(-c2ccc(Cl)c(C(=O)NCC(F)(F)F)c2)cn1", "note": "[I-T3-2]", "efficacy": 100}
{"molecule": "Cc1cc(C(F)(C(F)(F)F)C(F)(F)F)cc(C)c1-n1cc(-c2ccc(Cl)c(C(=O)NC3CSC3)c2)cn1", "note": "[I-T3-4]", "efficacy": 100}
{"molecule": "Cc1cc(C(F)(C(F)(F)F)C(F)(F)F)cc(C)c1-n1cc(-c2ccc(Cl)c(C(=O)NC3(C(F)(F)F)CC3)c2)cn1", "note": "[I-T3-5]", "efficacy": 100}
{"molecule": "Cc1cc(C(F)(C(F)(F)F)C(F)(F)F)cc(C)c1-n1cc(-c2cncc(C(=O)NC3(C#N)CC3)c2)cn1", "note": "[I-T3-8]", "efficacy": 100}
{"molecule": "N#CC1(NC(=O)c2cc(-c3cnn(-c4ccc(C(F)(C(F)(F)F)C(F)(F)F)cc4OC(F)(F)F)c3)ccc2Cl)CC1", "note": "[I-T3-34]", "efficacy": 100}
{"molecule": "O=C(NC1CC1)c1cc(-c2cnn(-c3ccc(C(F)(C(F)(F)F)C(F)(F)F)cc3OC(F)(F)F)c2)ccc1Cl", "note": "[I-T3-35]", "efficacy": 100}
{"molecule": "N#CC1(NC(=O)c2cc(-c3cnn(-c4c(F)cc(C(F)(F)F)cc4F)c3)ccc2Cl)CC1", "note": "[I-T3-49]", "efficacy": 100}
{"test_system": "Ctenocephalides felis", "test": "Ctenocephalides felis - oral test", "format": "in vivo", "details": "application rate 100 ppm in citrated cattle blood; adult fleas; kill after 2 days", "protocol": "Ctenocephalides felis—Oral Test\nas §1\nFor the purpose of producing an appropriate active ingredient formulation, 10 mg of active ingredient are mixed with 0.5 ml of dimethyl sulphoxide. Dilution with citrated cattle blood gives the desired concentration.\nAbout 20 unfed adult cat fleas (Ctenocephalides felis) are placed into a chamber which is closed at the top and bottom with gauze. A metal cylinder whose bottom end is closed with parafilm is placed onto the chamber. The cylinder contains the blood/active ingredient preparation, which can be imbibed by the fleas through the parafilm membrane.\nAfter 2 days, the kill in % is determined. 100% means that all of the fleas have been killed; 0% means that none of the fleas have been killed.", "units": {"efficacy": "%"}}
{"molecule": "Cc1cc(C(F)(C(F)(F)F)C(F)(F)F)cc(C)c1-n1cc(-c2ccc(Cl)c(C(=O)NCC(F)(F)F)c2)cn1", "note": "[I-T3-2]", "efficacy": 100}
{"molecule": "Cc1cc(C(F)(C(F)(F)F)C(F)(F)F)cc(C)c1-n1cc(-c2ccc(Cl)c(C(=O)NC3CSC3)c2)cn1", "note": "[I-T3-4]", "efficacy": 100}
{"molecule": "Cc1cc(C(F)(C(F)(F)F)C(F)(F)F)cc(C)c1-n1cc(-c2ccc(Cl)c(C(=O)NC3(C(F)(F)F)CC3)c2)cn1", "note": "[I-T3-5]", "efficacy": 100}
{"molecule": "Cc1cc(C(F)(C(F)(F)F)C(F)(F)F)cc(C)c1-n1cc(-c2cncc(C(=O)NC3(C#N)CC3)c2)cn1", "note": "[I-T3-8]", "efficacy": 100}
{"molecule": "N#CC1(NC(=O)c2cc(-c3cnn(-c4ccc(C(F)(C(F)(F)F)C(F)(F)F)cc4OC(F)(F)F)c3)ccc2Cl)CC1", "note": "[I-T3-34]", "efficacy": 100}
{"molecule": "O=C(NC1CC1)c1cc(-c2cnn(-c3ccc(C(F)(C(F)(F)F)C(F)(F)F)cc3OC(F)(F)F)c2)ccc1Cl", "note": "[I-T3-35]", "efficacy": 100}
{"molecule": "N#CC1(NC(=O)c2cc(-c3cnn(-c4c(F)cc(C(F)(F)F)cc4F)c3)ccc2Cl)CC1", "note": "[I-T3-49]", "efficacy": 100}
{"test_system": "not listed separately", "test": "logP determination by HPLC on a reversed-phase column (C18), EEC Directive 79/831 Annex V.A8", "format": "physicochemical", "details": "HPLC-MS method a), Table I-T3"}
{"molecule": "Cc1cc(C(F)(C(F)(F)F)C(F)(F)F)cc(C)c1-n1cc(-c2ccc(Cl)c(C(=O)NCC(F)(F)F)c2)cn1", "note": "[I-T3-2]", "logP^a)": 4.7}
{"molecule": "Cc1cc(C(F)(C(F)(F)F)C(F)(F)F)cc(C)c1-n1cc(-c2ccc(Cl)c(C(=O)NC3CSC3)c2)cn1", "note": "[I-T3-4]", "logP^a)": 4.7}
{"molecule": "Cc1cc(C(F)(C(F)(F)F)C(F)(F)F)cc(C)c1-n1cc(-c2ccc(Cl)c(C(=O)NC3(C(F)(F)F)CC3)c2)cn1", "note": "[I-T3-5]", "logP^a)": 4.6}
{"molecule": "Cc1cc(C(F)(C(F)(F)F)C(F)(F)F)cc(C)c1-n1cc(-c2cncc(C(=O)NC3(C#N)CC3)c2)cn1", "note": "[I-T3-8]", "logP^a)": 3.4}
{"molecule": "N#CC1(NC(=O)c2cc(-c3cnn(-c4ccc(C(F)(C(F)(F)F)C(F)(F)F)cc4OC(F)(F)F)c3)ccc2Cl)CC1", "note": "[I-T3-34]", "logP^a)": 4.6}
{"molecule": "O=C(NC1CC1)c1cc(-c2cnn(-c3ccc(C(F)(C(F)(F)F)C(F)(F)F)cc3OC(F)(F)F)c2)ccc1Cl", "note": "[I-T3-35]", "logP^a)": 4.7}
{"molecule": "N#CC1(NC(=O)c2cc(-c3cnn(-c4c(F)cc(C(F)(F)F)cc4F)c3)ccc2Cl)CC1", "note": "[I-T3-49]", "logP^a)": 3.2}
{"test_system": "Musca domestica", "test": "Musca domestica test", "format": "in vivo", "details": "application rate 4 ppm; adult houseflies; kill after 2 days", "protocol": "as §1, §2\n(§3) Vessels containing a sponge treated with sugar solution and the active ingredient formulation of the desired concentration are populated with 10 adult houseflies (Musca domestica).\n(§4) After 2 days, the kill in % is determined. 100% means that all of the flies have been killed; 0% means that none of the flies have been killed.", "units": {"efficacy": "%"}}
{"molecule": "O=C(NC1CC1)c1cc(-c2cnn(-c3ccc(C(F)(C(F)(F)F)C(F)(F)F)cc3OC(F)(F)F)c2)ccc1Cl", "note": "[I-T3-35]", "efficacy": 80}
{"test_system": "Musca domestica", "test": "Musca domestica test", "format": "in vivo", "details": "application rate 100 ppm; adult houseflies; kill after 2 days", "protocol": "as §1, §2, §3, §4", "units": {"efficacy": "%"}}
{"molecule": "Cc1cc(C(F)(C(F)(F)F)C(F)(F)F)cc(C)c1-n1cc(-c2ccc(Cl)c(C(=O)NCC(F)(F)F)c2)cn1", "note": "[I-T3-2]", "efficacy": 100}
{"molecule": "Cc1cc(C(F)(C(F)(F)F)C(F)(F)F)cc(C)c1-n1cc(-c2ccc(Cl)c(C(=O)NC3CSC3)c2)cn1", "note": "[I-T3-4]", "efficacy": 100}
{"molecule": "Cc1cc(C(F)(C(F)(F)F)C(F)(F)F)cc(C)c1-n1cc(-c2ccc(Cl)c(C(=O)NC3(C(F)(F)F)CC3)c2)cn1", "note": "[I-T3-5]", "efficacy": 100}
{"molecule": "Cc1cc(C(F)(C(F)(F)F)C(F)(F)F)cc(C)c1-n1cc(-c2cncc(C(=O)NC3(C#N)CC3)c2)cn1", "note": "[I-T3-8]", "efficacy": 100}
{"molecule": "N#CC1(NC(=O)c2cc(-c3cnn(-c4ccc(C(F)(C(F)(F)F)C(F)(F)F)cc4OC(F)(F)F)c3)ccc2Cl)CC1", "note": "[I-T3-34]", "efficacy": 100}
{"test_system": "Boophilus microplus", "test": "Boophilus microplus - injection test", "format": "in vivo", "details": "application rate 20 μg/animal; injected into engorged adult female ticks; laying of fertile eggs, after 7 days", "protocol": "Boophilus microplus—Injection Test\nas §1\nTo produce an appropriate active ingredient formulation, 10 mg of active ingredient are mixed with 0.5 ml of solvent and the concentrate is diluted with solvent to the desired concentration.\n1 μl of the active ingredient solution is injected into the abdomen of 5 engorged adult female cattle ticks (Boophilus microplus). The animals are transferred into dishes and kept in a climate-controlled room.\nEfficacy is assessed after 7 days by laying of fertile eggs. Eggs which are not visibly fertile are stored in a climate-controlled cabinet until the larvae hatch after about 42 days. An efficacy of 100% means that none of the ticks has laid any fertile eggs; 0% means that all the eggs are fertile.", "units": {"efficacy": "%"}}
{"molecule": "Cc1cc(C(F)(C(F)(F)F)C(F)(F)F)cc(C)c1-n1cc(-c2ccc(Cl)c(C(=O)NCC(F)(F)F)c2)cn1", "note": "[I-T3-2]", "efficacy": 100}
{"molecule": "Cc1cc(C(F)(C(F)(F)F)C(F)(F)F)cc(C)c1-n1cc(-c2ccc(Cl)c(C(=O)NC3CSC3)c2)cn1", "note": "[I-T3-4]", "efficacy": 100}
{"molecule": "Cc1cc(C(F)(C(F)(F)F)C(F)(F)F)cc(C)c1-n1cc(-c2ccc(Cl)c(C(=O)NC3(C(F)(F)F)CC3)c2)cn1", "note": "[I-T3-5]", "efficacy": 100}
{"molecule": "Cc1cc(C(F)(C(F)(F)F)C(F)(F)F)cc(C)c1-n1cc(-c2cncc(C(=O)NC3(C#N)CC3)c2)cn1", "note": "[I-T3-8]", "efficacy": 100}
{"molecule": "N#CC1(NC(=O)c2cc(-c3cnn(-c4ccc(C(F)(C(F)(F)F)C(F)(F)F)cc4OC(F)(F)F)c3)ccc2Cl)CC1", "note": "[I-T3-34]", "efficacy": 100}
{"molecule": "O=C(NC1CC1)c1cc(-c2cnn(-c3ccc(C(F)(C(F)(F)F)C(F)(F)F)cc3OC(F)(F)F)c2)ccc1Cl", "note": "[I-T3-35]", "efficacy": 100}
{"molecule": "N#CC1(NC(=O)c2cc(-c3cnn(-c4c(F)cc(C(F)(F)F)cc4F)c3)ccc2Cl)CC1", "note": "[I-T3-49]", "efficacy": 100}
